Measured values: patent US20070265269A1, “Water Soluble Esters of [N-(4-Amino-2-Butynyl)] with Anticancer Activity” (priority 2004, published 2007)

Legend:
[1] = system: Fibroblast (Flow 4000, lung fibroblasts); experiment: toxicity on normal cells, tetrazolium-based proliferation assay (EZ4U kit); assay type: cell-based; settings: for % Inhibition of growth: concentration of 1:400, normal cells, Flow 4000 lung fibroblasts, 4 days incubation; for toxicity to fibroblasts: result in words
Method: Cells were distributed to the wells of 96 well microtiter plates (10000 cells/well) in tissue culture medium (RPMI-1640 supplemented with 10% fetal bovine serum and 4 mM glutamine) and medium added for controls. Test compounds were added in the reported dilution steps and the plates incubated for 4 days under tissue culture conditions (37° C., 5% CO2).
(§1) Following incubation proliferation was measured using a tetrazolium-based assay (EZ4U kit, Biomedica, Vienna, Austria). Optical densities (OD) of the individual wells was determined with the help of an ELISA-Reader (all values done in triplicate) and the values obtained in medium controls set to 100% (OD490nm=0.5-1.5).
In addition the toxicity of a number of the esters of the invention have been tested on normal cells, Fibroblast (Flow 4000, lung fibroblasts).

[2] = system: panel of human tumour cell lines; experiment: anti-cancer activity, tetrazolium-based proliferation assay (EZ4U kit) in a panel of tumour cell lines; settings: result in words
Method: For the following test the following cell lines have been used:
Cell lines. Except indicated otherwise all cell lines were obtained from the American Type Culture Collection (ATCC, Rockville, Md.) and grown to confluent monolayers in RPMI-1640 bicarbonate medium (Seromed, Berlin, Germany) in a humidified incubator (5% CO2, 37° C.). Cells were checked for mycoplasma contamination. The medium was supplemented with 10% heat-inactivated fetal bovine serum (Seromed) and 4 mM glutamine. The cells were subcultured by trypsination (0.03% trypsin containing 0.02% EDTA, three times a week). Cell numbers were counted using a TOA Sysmex microcellcounter (TOA, Tokyo, Japan).
Chemicals and solutions. Unless otherwise mentioned, all chemicals were obtained from Sigma (St. Louis, Mo.). Compounds to be tested were used as supplied. CHP was used as 5 mg/ml stock solution in PBS (phosphate buffered saline, Dulbecco) and aliquots were stored frozen at −20° C. Related compounds were used as 2 mg/ml stock solution and stored frozen at −20° C. […]
as §1, with “(OD490nm=0.5-1.5). […]” for “(OD490nm=0.5-1.5).”

| SMILES | % Inhibition of growth [1] [%] | toxicity to fibroblasts [1] | antitumor activity [2] |
| --- | --- | --- | --- |
| CC(=O)OCC#CCN1CCOCC1 [L2, N-(4-morpholino-2-butynyl)acetate] | 18 | low toxicity to fibroblasts | highest antitumor activity |
| O=C(OCC#CCN1CCOCC1)c1ccccc1 [L4, N-(4-morpholino-2-butynyl)benzoate] | 34.2 |  |  |
| O=COCC#CCN1CCOCC1 [L6, N-(4-morpholino-2-butynyl)formate] | 37.4 |  |  |
| CCN(CC)CC#CCOC(C)=O [L9, N-[4-(N,N-diethylamino)-2-butynyl]acetate] | 5.4 |  |  |
| CC(=O)OCC#CCN(c1ccccc1)c1ccccc1 [L12, N-[4-(N,N-diphenylamino)-2-butynyl]acetate] | −7.6 |  |  |
| CC(=O)OCC#CCN1CCSCC1 [L13, N-(4-thiomorpholino-2-butynyl)acetate] | 19 |  |  |
| CCC(=O)OCC#CCN1CCOCC1 [L15, N-(4-morpholino-2-butynyl)propionate] | 13 |  |  |
| CC(C)(C)C(=O)OCC#CCN1CCOCC1 [L18, N-(4-morpholino-2-butynyl)pivalate] | 7 | low toxicity to fibroblasts | highest antitumor activity |
